According to ChEMBL document CHEMBL3860027, “α-Pyrones with Diverse Hydroxy Substitutions from Three Marine-Derived Nocardiopsis Strains” (2016):
≈ marks a conversion by molar mass, not a printed value.

What follows are compounds tested on Micrococcus luteus (assay: Antibacterial activity against Micrococcus luteus SCSIO ML01 by broth microdilution method).
Assay type: functional

MIC [µg/mL]	SMILES
32 (≈ 178 µM)	CCc1ccc([C@H](C)CC)oc1=O
32 (≈ 163 µM)	CCc1ccc(CC(C)(C)O)c(=O)o1
32 (≈ 178 µM)	CCc1ccc(CC(C)C)c(=O)o1
16 (≈ 81.5 µM)	CC(C)Cc1ccc(C(C)O)oc1=O (racemic)

What follows are compounds tested on Bacillus subtilis (assay: Antibacterial activity against Bacillus subtilis SCSIO BS01 by broth microdilution method).
Assay type: functional

MIC [µg/mL]	SMILES
64 (≈ 355 µM)	CCc1ccc(CC(C)C)c(=O)o1
64 (≈ 385 µM)	CC[C@@H](C)c1ccc(C)c(=O)o1
